According to patent US20110230472A1, “RING-FUSED AZOLE DERIVATIVE HAVING PI3K-INHIBITING ACTIVITY” (Shionogi & Co., Ltd., priority 2008, published 2011):
pIC50: −log10 of the molar value.

How the values were obtained:
CYP2D6 = target: T1, CYP2D6 (Homo sapiens, UniProt P10635); experiment: CYP inhibition test, pooled human liver microsome, CYP2D6; format: in vitro ADME; conditions: O-demethylation of dextromethorphan
T1 construct: enzyme: pooled human liver microsome 0.2 mg protein/mL; from tissue; host or cells: pooled human liver microsome
Method in brief: (§1)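 Pooled human liver microsomes (0.2 mg protein/mL) in 50 mmol/L Hepes with NADPH, 15 min at 37° C; test drug at 1, 5, 10, 20 μmol/L. Substrates: 0.5 μmol/L ethoxyresorufin (1A2, resorufin by fluorescence), 100 μmol/L tolbutamide (2C9), 5 μmol/L dextromethorphan (2D6), 1 μmol/L terfenadine (3A4), metabolites by LC/MS/MS. IC50 from remaining activity vs DMSO control, logistic model.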

CYP2C9 = target: T2, CYP2C9 (Homo sapiens, UniProt P11712); experiment: CYP inhibition test, pooled human liver microsome, CYP2C9; format: in vitro ADME; conditions: methyl-hydroxylation of tolbutamide
T2 construct: enzyme: pooled human liver microsome 0.2 mg protein/mL; from tissue; host or cells: pooled human liver microsome
Method in brief: as §1

Metabolic stability test = format: in vitro ADME; conditions: human liver microsome 0.5 mg protein/mL, 1 mmol/L NADPH, 37° C.
Method in brief: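 Pooled human liver microsomes (0.5 mg protein/mL) incubated with compound and 1 mmol/L NADPH at 37° C. in pH 7.4 Tris buffer for 0 or 30 min. Parent quantified by LC/MS/MS after methanol/acetonitrile quench; value is % remaining at 30 min versus 0 min.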

CYP1A2 = target: T3, CYP1A2 (Homo sapiens, UniProt P05177); experiment: CYP inhibition test, pooled human liver microsome, CYP1A2; format: in vitro ADME; conditions: O-de-ethylation of 7-ethoxyresorufin
T3 construct: enzyme: pooled human liver microsome 0.2 mg protein/mL; from tissue; host or cells: pooled human liver microsome
T3 sequence (P05177 1-516): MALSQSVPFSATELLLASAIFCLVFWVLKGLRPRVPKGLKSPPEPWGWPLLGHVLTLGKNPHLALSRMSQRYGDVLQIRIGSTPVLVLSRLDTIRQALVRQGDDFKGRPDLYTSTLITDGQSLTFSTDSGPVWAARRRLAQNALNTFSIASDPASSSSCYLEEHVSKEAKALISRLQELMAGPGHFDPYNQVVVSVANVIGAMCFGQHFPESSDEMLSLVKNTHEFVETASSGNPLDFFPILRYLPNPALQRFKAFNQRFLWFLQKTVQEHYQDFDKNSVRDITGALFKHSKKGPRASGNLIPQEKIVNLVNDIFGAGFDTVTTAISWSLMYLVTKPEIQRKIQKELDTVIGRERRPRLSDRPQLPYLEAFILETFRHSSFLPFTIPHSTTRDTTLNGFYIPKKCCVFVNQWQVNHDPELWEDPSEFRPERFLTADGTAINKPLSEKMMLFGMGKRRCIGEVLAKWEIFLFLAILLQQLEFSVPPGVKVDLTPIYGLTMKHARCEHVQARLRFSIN
Method in brief: as §1

Solubility test = format: physicochemical; conditions: kinetic from dmso stock; artificial intestinal juice pH 6.8, 1% DMSO, 25° C. for 16 hours
Method in brief: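 Kinetic solubility with 1% DMSO: compound from 10 mmol/L DMSO stock spiked into pH 6.8 phosphate artificial intestinal juice, held 16 h at 25 °C, then suction-filtered. Filtrate diluted twofold in methanol/water (1/1) and quantified by HPLC or LC/MS/MS via absolute calibration.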
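Wherever percentage of the test compound remained after reacting for 30 minutes is given: 100% equals the compound amount at 0 min reaction.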

T2 sequence (P11712 whole entry): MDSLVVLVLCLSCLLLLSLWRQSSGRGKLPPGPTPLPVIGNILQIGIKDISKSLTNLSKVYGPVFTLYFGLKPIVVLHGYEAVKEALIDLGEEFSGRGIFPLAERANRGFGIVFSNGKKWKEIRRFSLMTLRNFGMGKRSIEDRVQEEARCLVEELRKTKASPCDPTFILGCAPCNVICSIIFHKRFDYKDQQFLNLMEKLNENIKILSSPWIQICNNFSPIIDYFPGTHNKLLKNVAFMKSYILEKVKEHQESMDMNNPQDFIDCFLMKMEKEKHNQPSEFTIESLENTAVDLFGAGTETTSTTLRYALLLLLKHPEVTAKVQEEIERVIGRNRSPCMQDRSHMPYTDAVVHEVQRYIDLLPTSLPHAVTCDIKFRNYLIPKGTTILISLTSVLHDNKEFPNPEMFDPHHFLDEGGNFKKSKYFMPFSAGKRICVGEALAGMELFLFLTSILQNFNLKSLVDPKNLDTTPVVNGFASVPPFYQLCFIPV
T1 sequence (P10635 whole entry): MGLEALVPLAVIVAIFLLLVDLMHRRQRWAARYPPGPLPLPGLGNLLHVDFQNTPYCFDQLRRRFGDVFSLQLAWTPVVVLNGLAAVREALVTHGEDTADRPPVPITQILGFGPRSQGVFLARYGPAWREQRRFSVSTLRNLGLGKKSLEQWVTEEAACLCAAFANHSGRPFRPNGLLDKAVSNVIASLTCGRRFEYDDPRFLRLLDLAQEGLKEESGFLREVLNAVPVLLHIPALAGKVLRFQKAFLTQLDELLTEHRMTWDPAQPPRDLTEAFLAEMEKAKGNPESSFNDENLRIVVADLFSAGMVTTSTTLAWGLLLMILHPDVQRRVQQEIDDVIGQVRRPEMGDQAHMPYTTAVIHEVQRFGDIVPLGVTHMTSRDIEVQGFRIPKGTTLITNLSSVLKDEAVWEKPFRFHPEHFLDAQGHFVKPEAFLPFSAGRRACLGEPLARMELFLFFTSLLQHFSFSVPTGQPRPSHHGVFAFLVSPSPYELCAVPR

pIC50 (CYP2D6)	pIC50 (CYP2C9)	percentage of the test compound remained after reacting for 30 minutes (Metabolic stability test) [%]	pIC50 (CYP1A2)	solubility at 16 h (Solubility test) [µM]	SMILES
< 4.70	< 4.70	98.3	< 4.70	> 50	CNC(=O)Nc1nc2c(s1)CN(c1cc(Cl)nc(N)n1)CC2 [Compound I-118]
< 4.70	< 4.70	87.2	< 4.70	> 50	COc1cc(N2CCc3nc(NC(=O)NCC(=O)O)sc3C2)nc(OC)n1 [Compound I-208]
< 4.70	< 4.70	99.7	< 4.70		COc1cc(N2CCc3nc(NC(=O)NCc4cc(=O)[nH]o4)sc3C2)nc(OC)n1 [Compound I-279]

Continued, compound first:

SMILES	pIC50 (CYP2D6)	pIC50 (CYP2C9)	percentage of the test compound remained after reacting for 30 minutes (Metabolic stability test) [%]	pIC50 (CYP1A2)	solubility at 16 h (Solubility test) [µM]
CNC(=O)Nc1cc2n(n1)CCN2c1ccc(S(C)(=O)=O)cc1 [Compound I-89]	< 4.70	< 4.70	93.6	< 4.70	
CNC(=O)Nc1nc2c(s1)CN(c1ccnc(OC)n1)CC2 [Compound I-142]	< 4.70	< 4.70	97.5	< 4.70	> 50
CNC(=O)Nc1cc2n(n1)CCN2c1cc(C(=O)N2CCOCC2)cc(-c2ccc(N)nc2)c1 [Compound I-200]	< 4.70	< 4.70	98.6	< 4.70	> 50
CN1CCc2cc(N3CCn4nc(NC(=O)c5cccnc5)cc43)ccc2C1=O [Compound I-347]	< 4.70	< 4.70	92	< 4.70	> 50
CN1CCc2cc(N3CCn4nc(NC(=O)c5ccco5)cc43)ccc2C1=O [Compound I-358]	< 4.70	< 4.70	88.4	< 4.70	> 50
